Measurements published in US20170210751A1, “PRMT5 INHIBITORS AND USES THEREOF” (Epizyme, Inc., priority 2014, published 2017).

Test system: Symmetric di-Methyl Arginine in Z-138 cells
Assay: Z-138 Methylation Assay (In Cell Western for symmetric di-methyl arginine)
Type: cell-based
Details: Homo sapiens, 96 hours incubation, symmetric di-methyl arginine normalised to DNA content, read-out: ICW EC50
Excerpt: Z-138 suspension cells were purchased from ATCC (American Type Culture Collection, Manassas, Va.). RPMI/Glutamax medium, penicillin-streptomycin, heat inactivated fetal bovine serum, and D-PBS were purchased from Life Technologies, Grand Island, N.Y., USA. Odyssey blocking buffer, 800CW goat anti-rabbit IgG (H+L) antibody, and Licor Odyssey infrared scanner were purchased from Licor Biosciences, Lincoln, Nebr., USA. Symmetric di-methyl arginine antibody was purchased from EMD Millipore, Billerica, Mass., USA. 16% Paraformaldehyde was purchased from Electron Microscopy Sciences, Hatfield, Pa., USA.
Z-138 suspension cells were maintained in growth medium (RPMI 1640 supplemented with 10% v/v heat inactivated fetal bovine serum and 100 units/mL penicillin-streptomycin) and cultured at 37° C. under 5% CO2.
Cell Treatment, In Cell Western (ICW) for detection of Symmetric di-Methyl Arginine and DNA content.
Z-138 cells were seeded in assay medium at a concentration of 50,000 cells per mL to a 384-well cell culture plate with 50 μL per well. Compound (100 nL) from 384 well source plates was added directly to 384 well cell plate. Plates were incubated at 37° C., 5% CO2 for 96 hours. After four days of incubation, 40 μL of cells from incubated plates were added to poly-D-lysine coated 384 well culture plates (BD Biosciences 356697). Plates were incubated at room temperature for 30 minutes then incubated at 37° C., 5% CO2 for 5 hours. After the incubation, 40 μL per well of 8% paraformaldehyde in PBS (16% paraformaldahyde was diluted to 8% in PBS) was added to each plate and incubated for 30 minutes. Plates were transferred to a Biotek 405 plate washer and washed 5 times with 100 μL per well of wash buffer (IX PBS with 0.1% Triton X-100 (v/v)). Next […] well of Odyssey blocking buffer were added to each plate and incubated 1 hour at room temperature. Blocking buffer was removed and 20 μL per well of primary antibody was added (symmetric di-methyl arginine diluted 1:100 in Odyssey buffer with 0.1% Tween 20 (v/v)) and plates were incubated overnight (16 hours) at 4° C. Plates were washed 5 times with 100 μL per well of wash buffer. Next 20 μL per well of secondary antibody was added (1:200 800CW goat anti-rabbit IgG (H+L) antibody, 1:1000 DRAQ5 (Biostatus limited) in Odyssey buffer with 0.1% Tween 20 (v/v)) and incubated for 1 hour at room temperature. The plates were washed 5 times with 100 μL per well wash buffer then 1 time with 100 μL per well of water. Plates were allowed to dry at room temperature then imaged on the Licor Odyssey machine which measures integrated intensity at 700 nm and 800 nm wavelengths. Both 700 and 800 channels were scanned.
First, the ratio for each well was determined by:
Each plate included fourteen control wells of DMSO only treatment (minimum inhibition) as well as fourteen control wells for maximum inhibition treated with 3 μM of a reference compound (Background wells). The average of the ratio values for each control type was calculated and used to determine the percent inhibition for each test well in the plate. Reference compound was serially diluted three-fold in DMSO for a total of nine test concentrations, beginning at 3 μM. Percent inhibition was determined and IC50 curves were generated using triplicate wells per concentration of compound.

| SMILES | EC50 [µM] |
| --- | --- |
| Nc1nc2c(s1)CCN(C[C@@H](O)CNC(=O)c1cc(NC3COC3)ncn1)C2 [Compound 1-20, (S)—N-(3-(2-amino-6,7-dihydrothiazolo[4,5-c]pyridin-5(4H)-yl)-2-hydroxypropyl)-6-(oxetan-3-ylamino)pyrimidine-4-carboxamide] | > 1 |
| CC(=O)N1CCC(Nc2cc(C(=O)NC[C@H](O)CN3CCc4scnc4C3)ncn2)CC1 [Compound 1-32] | > 1 |
| Cn1ncc2c1CCCN2C[C@@H](O)CNC(=O)c1cc(NC2COC2)ncn1 [Compound 3-40] | > 1 |
| CC(=O)N1CC(Nc2cc(C(=O)NC[C@H](O)CN3CCc4cccnc4C3)ncn2)C1 [Compound 2-13] | 0.101 to 1 |
| Cn1cnc2c1CCN(C[C@@H](O)CNC(=O)c1cc(NC3COC3)ncn1)C2 [Compound 3-28] | > 1 |
| O=C(NC[C@H](O)CN1CCc2ccncc2C1)c1cc(NC2COC2)ncn1 [Compound 2-24] | > 1 |
| O=C(COc1cccc2cccnc12)NCC(O)CN1CCc2cccnc2C1 (stereo not shown) [Compound 2-5, N-[2-hydroxy-3-(5,6,7,8-tetrahydro-1,7-naphthyridin-7-yl)propyl]-2-(quinolin-8-yloxy)acetamide] | > 1 |
| CC(=O)N1CC(Nc2cc(C(=O)NC[C@H](O)CN3CCc4ncsc4C3)ncn2)C1 [Compound 1-17, (S)-6-((1-acetylazetidin-3-yl)amino)-N-(3-(6,7-dihydrothiazolo[5,4-c]pyridin-5(4H)-yl)-2-hydroxypropyl)pyrimidine-4-carboxamide] | > 1 |
| CC(=O)N1CCC(Nc2cc(C(=O)NC[C@H](O)CN3CCc4scc(C)c4C3)ncn2)CC1 [Compound 1-13, (S)-6-((1-acetylpiperidin-4-yl)amino)-N-(2-hydroxy-3-(3-methyl-6,7-dihydrothieno[3,2-c]pyridin-5(4H)-yl)propyl)pyrimidine-4-carboxamide] | < 0.1 |
| CC(=O)N1CCC(Nc2cc(C(=O)NC[C@H](O)CN3CCCc4c3cnn4C)ncn2)CC1 [Compound 3-58] | > 1 |
| Cc1nc2c(s1)CN(C[C@@H](O)CNC(=O)c1cc(NC3COC3)ncn1)CC2 [Compound 1-8, (S)—N-(2-hydroxy-3-(2-methyl-6,7-dihydrothiazolo[5,4-c]pyridin-5(4H)-yl)propyl)-6-(oxetan-3-ylamino)pyrimidine-4-carboxamide] | > 1 |
| CC(=O)N1CCC(Nc2cc(C(=O)NC[C@H](O)CN3CCc4[nH]ncc4C3)ccn2)CC1 [Compound 3-21] | > 1 |
| CC(=O)N1CCC(Nc2cc(C(=O)NC[C@H](O)CN3CCc4ncn(C)c4C3)ccn2)CC1 [Compound 3-24, (S)-2-((1-acetylpiperidin-4-yl)amino)-N-(2-hydroxy-3-(3-methyl-6,7-dihydro-3H-imidazo[4,5-c]pyridin-5(4H)-yl)propyl)isonicotinamide] | > 1 |
| CC(=O)N1CCC(Nc2cc(C(=O)NC[C@H](O)CN3CCc4[nH]nc(-c5ccccc5)c4C3)ncn2)CC1 [Compound 3-12, (S)-6-((1-acetylpiperidin-4-yl)amino)-N-(2-hydroxy-3-(3-phenyl-6,7-dihydro-1H-pyrazolo[4,3-c]pyridin-5(4H)-yl)propyl)pyrimidine-4-carboxamide] | > 1 |
| O=C(NC[C@H](O)CN1CCc2sccc2C1)c1cc(NC2COC2)ncn1 [Compound 1-1, (S)—N-(3-(6,7-dihydrothieno[3,2-c]pyridin-5(4H)-yl)-2-hydroxypropyl)-6-(oxetan-3-ylamino)pyrimidine-4-carboxamide] | < 0.1 |
| O=C(COc1cccc2cccnc12)NCC(O)CN1CCc2sccc2C1 (stereo not shown) [Compound 1-4, N-(2-hydroxy-3-{4H,5H,6H,7H-thieno[3,2-c]pyridin-5-yl}propyl)-2-(quinolin-8-yloxy)acetamide] | < 0.1 |

| SMILES | EC50 [µM] |
| --- | --- |
| CC(=O)N1CCC(Nc2cc(C(=O)NC[C@H](O)CN3CCc4sc(C)nc4C3)ccn2)CC1 [Compound 1-33] | > 1 |
| CC(=O)N1CCC(Nc2cc(C(=O)NC[C@H](O)CN3CCc4cnccc4C3)ncn2)CC1 [Compound 2-17, (S)-6-((1-acetylpiperidin-4-yl)amino)-N-(3-(3,4-dihydro-2,6-naphthyridin-2(1H)-yl)-2-hydroxypropyl)pyrimidine-4-carboxamide] | > 1 |
| O=C(NC[C@H](O)CN1CCc2ncsc2C1)c1cc(NC2COC2)ncn1 [Compound 1-16, (S)—N-(3-(6,7-dihydrothiazolo[5,4-c]pyridin-5(4H)-yl)-2-hydroxypropyl)-6-(oxetan-3-ylamino)pyrimidine-4-carboxamide] | > 1 |
| CC(=O)N1CCC(Nc2cc(C(=O)NC[C@H](O)CN3CCc4scnc4C3)ccn2)CC1 [Compound 1-30] | 0.101 to 1 |
| O=C(COc1cccc2cccnc12)NCC(O)CN1CCc2ncccc2C1 (stereo not shown) [Compound 2-6, N-[2-hydroxy-3-(5,6,7,8-tetrahydro-1,6-naphthyridin-6-yl)propyl]-2-(quinolin-8-yloxy)acetamide] | > 1 |
| CC(=O)N1CCC(Nc2cc(C(=O)NC[C@H](O)CN3CCc4[nH]cnc4C3)ncn2)CC1 [Compound 3-34, (S)-6-((1-acetylpiperidin-4-yl)amino)-N-(3-(6,7-dihydro-1H-imidazo[4,5-c]pyridin-5(4H)-yl)-2-hydroxypropyl)pyrimidine-4-carboxamide] | > 1 |
| Cn1cc2c(n1)CCN(C[C@@H](O)CNC(=O)c1cc(NC3COC3)ncn1)C2 [Compound 3-27] | > 1 |
| Cn1cnc2c1CN(C[C@@H](O)CNC(=O)c1cc(NC3COC3)ncn1)CC2 [Compound 3-26, (S)—N-(2-hydroxy-3-(3-methyl-6,7-dihydro-3H-imidazo[4,5-c]pyridin-5(4H)-yl)propyl)-6-(oxetan-3-ylamino)pyrimidine-4-carboxamide] | > 1 |
| CC(=O)N1CC(Nc2cc(C(=O)NC[C@H](O)CN3CCc4sccc4C3)ncn2)C1 [Compound 1-2, (S)-6-((1-acetylazetidin-3-yl)amino)-N-(3-(6,7-dihydrothieno[3,2-c]pyridin-5(4H)-yl)-2-hydroxypropyl)pyrimidine-4-carboxamide] | < 0.1 |
| CC(=O)N1CCC(Nc2cc(C(=O)NC[C@H](O)CN3CCc4nn(C)cc4C3)ccn2)CC1 [Compound 3-53] | > 1 |
| CC(=O)N1CCC(Nc2cc(C(=O)NC[C@H](O)CN3CCc4ncsc4C3)ncn2)CC1 [Compound 1-18, (S)-6-((1-acetylpiperidin-4-yl)amino)-N-(3-(6,7-dihydrothiazolo[5,4-c]pyridin-5(4H)-yl)-2-hydroxypropyl)pyrimidine-4-carboxamide] | > 1 |
| CC(=O)N1CCC(Nc2cc(C(=O)NC[C@H](O)CN3CCc4nn(C)cc4C3)ncn2)CC1 [Compound 3-57] | > 1 |
| CC(=O)N1CCC(Nc2cc(C(=O)NC[C@H](O)CN3CCc4cn[nH]c4C3)ccn2)CC1 [Compound 3-50] | > 1 |
| O=C(NC[C@H](O)CN1CCc2[nH]cnc2C1)c1cc(NC2COC2)ncn1 [Compound 3-38, (S)—N-(3-(6,7-dihydro-1H-imidazo[4,5-c]pyridin-5(4H)-yl)-2-hydroxypropyl)-6-(oxetan-3-ylamino)pyrimidine-4-carboxamide] | > 1 |
| CC(=O)N1CC(Nc2cc(C(=O)NC[C@H](O)CN3CCc4scc(C)c4C3)ncn2)C1 [Compound 1-12, (S)-6-((1-acetylazetidin-3-yl)amino)-N-(2-hydroxy-3-(3-methyl-6,7-dihydrothieno[3,2-c]pyridin-5(4H)-yl)propyl)pyrimidine-4-carboxamide] | < 0.1 |
